Source: patent US9359373B1, “Lipophilic N-substituted norcantharimide derivatives and uses thereof” (priority 2014, dated 2016)

What was measured:
[1] = test system: human leukemia cells (Jurkat T cells); test: Cell viability (CCK-8), PMAI activated leukemia Jurkat T cells model; assay type: cell-based; conditions: 24 hours (NC15: 24 and 48 hours), FIG. 4, FIG. 6
Protocol: (§1) The cell viability assays were performed in 96-well plates. The 100 μl of cell suspensions (NHL or Jurkat T cells, 5×10^3 cells/well, serum-free medium) were inoculated in the wells and the plates were pre-incubated in the incubator for 24 hours (pre-incubated for 22 hours and stimulated with PMA 5 ng/ml plus ionomycin 250 ng/ml for 2 hours in PMAI-treated groups). Then, various concentrations of norcantharidin (0, 2, 4, 15, 30 and 60 μM) or NOC15 (0, 0.25, 0.5, 1, 2 and 4 μM) were added into the culture media in the wells. After 24 hours of incubation, the cell viability of NHL and Jurkat T cells was measured by cell counting kit-8 (CCK-8, Sigma). The half maximal inhibitory concentrations (IC50) of norcantharidin and NOC15 on Jurkat T cells and NHL cells were calculated.
(§2) In this example, a model of phorbol 12-myristate 13-acetate plus ionomycin (PMAI) activated leukemia Jurkat T cells model was employed to investigate the effects of the NOC15 on human leukemia cells (Jurkat T cells) and human lymphoblast cells (NHL).

HL60 = test: MTT cell viability, HL60; assay type: cell-based, human
Protocol: (§3) Cell lines used in the present disclosure include human liver carcinonoma cell line HepG2, human bladder carcinoma cell line BFTC905, human colon carcinoma cell lines HT29 and SW480, and human leukemia cell lines HL60 and Jurkat T, and mouse lymphocytic leukemia cell line L1210. Each cell lines were cultured and maintained in Dulbecco's modified Eagle media (DMEM) or RPMI 1640 medium supplemented with 10% heat inactivated fetal bovine serum (FBS), 1% penicillin/streptomycin, in 5% CO2195% air at 37° C.
(§4) The absorbance of the solution at 540 nm was measured by spectrophotometer. The IC50 values were defined as the drug concentration that inhibit 50% cell growth by setting the viability of untreated cells as 100%. Values were represented as the mean±SD from at least 3 independent experiments.
(§5) Effects of the compounds of formula (I) of this disclosure, specifically, NOC15 and NC 15, on HepG2 cells (liver carcinoma), BFTC905 (bladder carcinoma), HT29 (colon carcinoma), SW480 (colon carcinoma) and HL60 (leukemia) were assessed by cell viability analysis in accordance with procedures described above, in which compound 2, and other known anti-cancer agents including 5-FU, cisplatin and doxorubicin were respectively used as positive controls.

[2] = test system: human lymphoblast cells (NHL); test: Cell viability (CCK-8), normal lymphoblast cells; assay type: cell-based; conditions: 24 hours (NC15: 24 and 48 hours), FIG. 4, FIG. 6
Protocol: as §1, §2

HT29 = test: MTT cell viability, HT29; assay type: cell-based, human; conditions: Homo sapiens, HT-29, 48 hours, Mean ± SD, read-out: Growth Inhibition IC50 HT-29
Protocol: as §3, §4, §5

Jurkat T cells = test: Cell cycle distribution by flow cytometry, Jurkat T cells; assay type: cell-based, human; conditions: for percentage of cells in subG1 phase: FIG. 5, FIG. 7
Protocol: Cultured cells with or without pre-treatment of the compounds of this invention (i.e., norcantharidin, NOC15, or NC15, 10-60 μM for 48 hours) were harvested from the cultured media and fixed by incuating with 75% iced cold ehtanol and kept at −20° C. until analysis. The fixed cells were then washed with PBS, and treated with […] (200 μg/mL, 500 μL) for about 1.5 hour at 37° C. Precipitated cells were collected by centrifugation and re-suspended in a buffer solution containing propidium iodine (PI) (40 μg/ml) and incubated in the dark for 20 min at 20-25° C. before being subject to flow cytometry analysis, where cell numbers at respective cell cycles were determined.
Cell cycle distribution was determined by flow cytometry as described in the “Materials and Methods” section. Results is depicted in FIG. 5.
In this example, Jurkat T cells were treated with or without NC15 (2.513 μM) for 24 or 48 hours before being subject to cell cycle analysis. Results are depicted in FIG. 7.

CC(C)=CCCC(C)=CCCC(C)=CCN1C(=O)C2C3CCC(O3)C2C1=O (centres unmarked) [Compound 18, N-farnesyl-7-oxabicyclo[2.2.1]heptane-2,3-dicarboximide] was tested, and the “cytotoxicity to leukemia Jurkat T cells” value [1] was “toxic”, the IC50 (HL60; Homo sapiens, HL-60, MTT, 48 hours, Mean ± SD, read-out: Growth Inhibition IC50 HL-60) was 79.8 ± 1.1 µM and the “response of leukemia cell line HL60 to treatment” value (HL60; in words, from Table 1) was “did respond”. The “cytotoxicity to normal lymphatic/lymphoblast cells (NHL)” value [2] was “did not possess significant cytotoxicity”, the IC50 (HT29) was 14.8 ± 1.9 µM and the “number of cells in G0/G1 phase” value (Jurkat T cells; 2.513 μM, 48 hours, vs control, FIG. 7D) was “decreased”. For the same compound, the “percentage of cells in subG1 phase” value (Jurkat T cells; treated 24 hours (NC15 2.513 μM)) was “started to increase” and the “percentage of cells in subG1 phase” value (Jurkat T cells; treated 48 hours (NC15 2.513 μM)) was “reached a significant level”.
